Measurements published in the NIST ThermoML archive (doi:10.1021/acs.jced.8b00601).
± gives the expanded uncertainty stated by the source.

Experiment: activity coefficient (dimensionless); of the first substance listed, at infinite dilution; xn = mol fraction of the nth substance listed
Conditions: 101.33 kPa, Liquid, Chromatography, x1 = 0

SMILES | activity coefficient (313 K) | activity coefficient (323 K) | activity coefficient (333 K) | activity coefficient (343 K)
ClCCCl [1,2-dichloroethane] + O=S(=O)([N-]S(=O)(=O)C(F)(F)F)C(F)(F)F.O=S(=O)([N-]S(=O)(=O)C(F)(F)F)C(F)(F)F.O=S(=O)([N-]S(=O)(=O)C(F)(F)F)C(F)(F)F.c1ccc2cc(-n3cc[n+](Cc4cc(C[n+]5ccn(-c6ccc7ccccc7c6)c5)cc(C[n+]5ccn(-c6ccc7ccccc7c6)c5)c4)c3)ccc2c1 | 0.758 ± 0.079 | 0.738 ± 0.077 | 0.677 ± 0.071 | 0.679 ± 0.071
Cc1ccccc1C [1,2-dimethylbenzene] + O=S(=O)([N-]S(=O)(=O)C(F)(F)F)C(F)(F)F.O=S(=O)([N-]S(=O)(=O)C(F)(F)F)C(F)(F)F.O=S(=O)([N-]S(=O)(=O)C(F)(F)F)C(F)(F)F.c1ccc2cc(-n3cc[n+](Cc4cc(C[n+]5ccn(-c6ccc7ccccc7c6)c5)cc(C[n+]5ccn(-c6ccc7ccccc7c6)c5)c4)c3)ccc2c1 | 3.35 ± 0.41 | 2.25 ± 0.3 | 1.54 ± 0.2 | 1.04 ± 0.14
Cc1cccc(C)c1 [1,3-dimethylbenzene] + O=S(=O)([N-]S(=O)(=O)C(F)(F)F)C(F)(F)F.O=S(=O)([N-]S(=O)(=O)C(F)(F)F)C(F)(F)F.O=S(=O)([N-]S(=O)(=O)C(F)(F)F)C(F)(F)F.c1ccc2cc(-n3cc[n+](Cc4cc(C[n+]5ccn(-c6ccc7ccccc7c6)c5)cc(C[n+]5ccn(-c6ccc7ccccc7c6)c5)c4)c3)ccc2c1 | 3.42 ± 0.42 | 2.31 ± 0.31 | 1.52 ± 0.19 | 1.26 ± 0.14
Cc1ccc(C)cc1 [1,4-dimethylbenzene] + O=S(=O)([N-]S(=O)(=O)C(F)(F)F)C(F)(F)F.O=S(=O)([N-]S(=O)(=O)C(F)(F)F)C(F)(F)F.O=S(=O)([N-]S(=O)(=O)C(F)(F)F)C(F)(F)F.c1ccc2cc(-n3cc[n+](Cc4cc(C[n+]5ccn(-c6ccc7ccccc7c6)c5)cc(C[n+]5ccn(-c6ccc7ccccc7c6)c5)c4)c3)ccc2c1 | 4.47 ± 0.56 | 2.94 ± 0.39 | 2.09 ± 0.26 | 1.51 ± 0.2
C1COCCO1 [1,4-dioxane] + O=S(=O)([N-]S(=O)(=O)C(F)(F)F)C(F)(F)F.O=S(=O)([N-]S(=O)(=O)C(F)(F)F)C(F)(F)F.O=S(=O)([N-]S(=O)(=O)C(F)(F)F)C(F)(F)F.c1ccc2cc(-n3cc[n+](Cc4cc(C[n+]5ccn(-c6ccc7ccccc7c6)c5)cc(C[n+]5ccn(-c6ccc7ccccc7c6)c5)c4)c3)ccc2c1 | 0.481 ± 0.06 | 0.34 ± 0.047 | 0.276 ± 0.038 | 0.262 ± 0.037
CC#N [acetonitrile] + O=S(=O)([N-]S(=O)(=O)C(F)(F)F)C(F)(F)F.O=S(=O)([N-]S(=O)(=O)C(F)(F)F)C(F)(F)F.O=S(=O)([N-]S(=O)(=O)C(F)(F)F)C(F)(F)F.c1ccc2cc(-n3cc[n+](Cc4cc(C[n+]5ccn(-c6ccc7ccccc7c6)c5)cc(C[n+]5ccn(-c6ccc7ccccc7c6)c5)c4)c3)ccc2c1 | 0.263 ± 0.038 | 0.217 ± 0.035 | 0.189 ± 0.033 | 0.181 ± 0.032
O=Cc1ccccc1 [benzaldehyde] + O=S(=O)([N-]S(=O)(=O)C(F)(F)F)C(F)(F)F.O=S(=O)([N-]S(=O)(=O)C(F)(F)F)C(F)(F)F.O=S(=O)([N-]S(=O)(=O)C(F)(F)F)C(F)(F)F.c1ccc2cc(-n3cc[n+](Cc4cc(C[n+]5ccn(-c6ccc7ccccc7c6)c5)cc(C[n+]5ccn(-c6ccc7ccccc7c6)c5)c4)c3)ccc2c1 | 1 ± 0.1 | 0.999 ± 0.1 | 1 ± 0.1 | 1 ± 0.1
c1ccccc1 [benzene] + O=S(=O)([N-]S(=O)(=O)C(F)(F)F)C(F)(F)F.O=S(=O)([N-]S(=O)(=O)C(F)(F)F)C(F)(F)F.O=S(=O)([N-]S(=O)(=O)C(F)(F)F)C(F)(F)F.c1ccc2cc(-n3cc[n+](Cc4cc(C[n+]5ccn(-c6ccc7ccccc7c6)c5)cc(C[n+]5ccn(-c6ccc7ccccc7c6)c5)c4)c3)ccc2c1 | 2.58 ± 0.3 | 1.88 ± 0.23 | 1.35 ± 0.17 | 0.994 ± 0.12
CCCC=O [butanal] + O=S(=O)([N-]S(=O)(=O)C(F)(F)F)C(F)(F)F.O=S(=O)([N-]S(=O)(=O)C(F)(F)F)C(F)(F)F.O=S(=O)([N-]S(=O)(=O)C(F)(F)F)C(F)(F)F.c1ccc2cc(-n3cc[n+](Cc4cc(C[n+]5ccn(-c6ccc7ccccc7c6)c5)cc(C[n+]5ccn(-c6ccc7ccccc7c6)c5)c4)c3)ccc2c1 | 0.425 ± 0.049 | 0.415 ± 0.048 | 0.396 ± 0.047 | 0.324 ± 0.043
C1CCCCC1 [cyclohexane] + O=S(=O)([N-]S(=O)(=O)C(F)(F)F)C(F)(F)F.O=S(=O)([N-]S(=O)(=O)C(F)(F)F)C(F)(F)F.O=S(=O)([N-]S(=O)(=O)C(F)(F)F)C(F)(F)F.c1ccc2cc(-n3cc[n+](Cc4cc(C[n+]5ccn(-c6ccc7ccccc7c6)c5)cc(C[n+]5ccn(-c6ccc7ccccc7c6)c5)c4)c3)ccc2c1 | 11.7 ± 1.3 | 9.16 ± 1 | 8.09 ± 0.9 | 6.25 ± 0.75
O=C1CCCCC1 [cyclohexanone] + O=S(=O)([N-]S(=O)(=O)C(F)(F)F)C(F)(F)F.O=S(=O)([N-]S(=O)(=O)C(F)(F)F)C(F)(F)F.O=S(=O)([N-]S(=O)(=O)C(F)(F)F)C(F)(F)F.c1ccc2cc(-n3cc[n+](Cc4cc(C[n+]5ccn(-c6ccc7ccccc7c6)c5)cc(C[n+]5ccn(-c6ccc7ccccc7c6)c5)c4)c3)ccc2c1 | 1 ± 0.1 | 0.999 ± 0.1 | 1 ± 0.1 | 1 ± 0.1
O=C1CCCC1 [cyclopentanone] + O=S(=O)([N-]S(=O)(=O)C(F)(F)F)C(F)(F)F.O=S(=O)([N-]S(=O)(=O)C(F)(F)F)C(F)(F)F.O=S(=O)([N-]S(=O)(=O)C(F)(F)F)C(F)(F)F.c1ccc2cc(-n3cc[n+](Cc4cc(C[n+]5ccn(-c6ccc7ccccc7c6)c5)cc(C[n+]5ccn(-c6ccc7ccccc7c6)c5)c4)c3)ccc2c1 | 0.303 ± 0.039 | 0.296 ± 0.04 | 0.22 ± 0.035 | 0.211 ± 0.034
CCO [ethanol] + O=S(=O)([N-]S(=O)(=O)C(F)(F)F)C(F)(F)F.O=S(=O)([N-]S(=O)(=O)C(F)(F)F)C(F)(F)F.O=S(=O)([N-]S(=O)(=O)C(F)(F)F)C(F)(F)F.c1ccc2cc(-n3cc[n+](Cc4cc(C[n+]5ccn(-c6ccc7ccccc7c6)c5)cc(C[n+]5ccn(-c6ccc7ccccc7c6)c5)c4)c3)ccc2c1 | 0.927 ± 0.1 | 0.724 ± 0.082 | 0.611 ± 0.066 | 0.606 ± 0.064
CCOC(C)=O [ethyl acetate] + O=S(=O)([N-]S(=O)(=O)C(F)(F)F)C(F)(F)F.O=S(=O)([N-]S(=O)(=O)C(F)(F)F)C(F)(F)F.O=S(=O)([N-]S(=O)(=O)C(F)(F)F)C(F)(F)F.c1ccc2cc(-n3cc[n+](Cc4cc(C[n+]5ccn(-c6ccc7ccccc7c6)c5)cc(C[n+]5ccn(-c6ccc7ccccc7c6)c5)c4)c3)ccc2c1 | 1.02 ± 0.11 | 0.776 ± 0.093 | 0.544 ± 0.068 | 0.443 ± 0.054
CCCCCCC [heptane] + O=S(=O)([N-]S(=O)(=O)C(F)(F)F)C(F)(F)F.O=S(=O)([N-]S(=O)(=O)C(F)(F)F)C(F)(F)F.O=S(=O)([N-]S(=O)(=O)C(F)(F)F)C(F)(F)F.c1ccc2cc(-n3cc[n+](Cc4cc(C[n+]5ccn(-c6ccc7ccccc7c6)c5)cc(C[n+]5ccn(-c6ccc7ccccc7c6)c5)c4)c3)ccc2c1 | 12.2 ± 1.3 | 10.1 ± 1.2 | 6.77 ± 0.82 | 6.03 ± 0.65
CCCCCCCC [octane] + O=S(=O)([N-]S(=O)(=O)C(F)(F)F)C(F)(F)F.O=S(=O)([N-]S(=O)(=O)C(F)(F)F)C(F)(F)F.O=S(=O)([N-]S(=O)(=O)C(F)(F)F)C(F)(F)F.c1ccc2cc(-n3cc[n+](Cc4cc(C[n+]5ccn(-c6ccc7ccccc7c6)c5)cc(C[n+]5ccn(-c6ccc7ccccc7c6)c5)c4)c3)ccc2c1 | 28.4 ± 3.5 | 19.4 ± 2.5 | 14.1 ± 1.8 | 9.43 ± 1.4
CCCC(C)=O [pentan-2-one] + O=S(=O)([N-]S(=O)(=O)C(F)(F)F)C(F)(F)F.O=S(=O)([N-]S(=O)(=O)C(F)(F)F)C(F)(F)F.O=S(=O)([N-]S(=O)(=O)C(F)(F)F)C(F)(F)F.c1ccc2cc(-n3cc[n+](Cc4cc(C[n+]5ccn(-c6ccc7ccccc7c6)c5)cc(C[n+]5ccn(-c6ccc7ccccc7c6)c5)c4)c3)ccc2c1 | 0.54 ± 0.062 | 0.441 ± 0.053 | 0.365 ± 0.045 | 0.341 ± 0.042
CCCO [propan-1-ol] + O=S(=O)([N-]S(=O)(=O)C(F)(F)F)C(F)(F)F.O=S(=O)([N-]S(=O)(=O)C(F)(F)F)C(F)(F)F.O=S(=O)([N-]S(=O)(=O)C(F)(F)F)C(F)(F)F.c1ccc2cc(-n3cc[n+](Cc4cc(C[n+]5ccn(-c6ccc7ccccc7c6)c5)cc(C[n+]5ccn(-c6ccc7ccccc7c6)c5)c4)c3)ccc2c1 | 1.4 ± 0.16 | 1.1 ± 0.13 | 0.842 ± 0.094 | 0.73 ± 0.079
CC(C)O [propan-2-ol] + O=S(=O)([N-]S(=O)(=O)C(F)(F)F)C(F)(F)F.O=S(=O)([N-]S(=O)(=O)C(F)(F)F)C(F)(F)F.O=S(=O)([N-]S(=O)(=O)C(F)(F)F)C(F)(F)F.c1ccc2cc(-n3cc[n+](Cc4cc(C[n+]5ccn(-c6ccc7ccccc7c6)c5)cc(C[n+]5ccn(-c6ccc7ccccc7c6)c5)c4)c3)ccc2c1 | 1.89 ± 0.24 | 1.24 ± 0.16 | 0.965 ± 0.11 | 0.693 ± 0.091
c1ccncc1 [pyridine] + O=S(=O)([N-]S(=O)(=O)C(F)(F)F)C(F)(F)F.O=S(=O)([N-]S(=O)(=O)C(F)(F)F)C(F)(F)F.O=S(=O)([N-]S(=O)(=O)C(F)(F)F)C(F)(F)F.c1ccc2cc(-n3cc[n+](Cc4cc(C[n+]5ccn(-c6ccc7ccccc7c6)c5)cc(C[n+]5ccn(-c6ccc7ccccc7c6)c5)c4)c3)ccc2c1 |  | 0.164 ± 0.031 | 0.173 ± 0.032 | 0.198 ± 0.033
